The subject of data set [1] is hCLRN1^N48K-YFP; clrn1^+/+ larvae. Put plainly: Larval survival/lethality by TG or ART dose and treatment duration. The format is in vivo, zebrafish. Details: key: ‘S’ =Surviving; ‘L’ = Lethal; ‘S/L’ Larvae surviving with apoptosis/necrosis of hair cells. The method, then:
Thapsigargin (TG, 1 mg, Sigma-Aldrich, #T9033) stock in 100% DMSO was diluted in E3 medium to make the required final concentration of the drug. Five different concentrations that were earlier reported to induce ER stress and are non-toxic or lower lethal dose (LD50) in the zebrafish (0.1, 0.5, 1.0, 2.5, 5 μM concentrations) were used in this study. A total of 25 larvae per dosage and treatment duration from the genotypes hCLRN1^N48K-YFP; clrn1^+/+ and hCLRN1-YFP; clrn1^+/+, no older than 72 hours post fertilization (hpf) at the start of the experiment, were placed in a well of 12-well uncoated culture plate (BD Falcon, Canaan, CT). For ER stress induction, larvae were incubated in different dosage of TG from 1 hr to overnight at 28.5° C., followed by three times wash with E3 medium at 28.5° C. (Table 2) and hair cells from the hCLRN1^N48K-YFP; clrn1^+/+ and hCLRN1-YFP; clrn1^+/+ lines were examined for the respective protein distribution pattern in the hair cell bundle and the cell body. Live confocal images of ‘O’ and ‘ML1’ neuromasts per larvae were capture using Leica SP2 confocal microscope with 40× oil immersion objective. Unadjusted 1 micron middle section images of four hair bundles per ML1 neuromast of larvae from TG treated and untreated groups were analyzed using Image J software version v. 1.48 (FIG. 4). The hair bundle trafficked amount of hCLRN1^N48K protein corresponds to the change in YFP intensity in the hair bundle in the TG treated larvae. Quantification of YFP fluorescence intensity was carried out as described in the previous experiment for unconventional trafficking of hCLRN1^N48K-YFP by hGRASP55 cargos. […] Student's t-test was used to confirm the observed changes in the YFP intensity in the hair bundles of TG treatment compared to untreated hCLRN1^N48K-YFP; clrn1^+/+ larvae, is significant (FIG. 4J).
Arthemisinin (ART, 100 mg, Sigma-Aldrich, #361593) in 100% DMSO was diluted in E3 medium to make the final concentration. Five different concentrations within the range of reported ER stress inducing level in the zebrafish (0.1, 0.25, 0.4, 0.5, and 1 μM concentrations) were used in this study. A total of 25 larvae, no older than 72 hpf at the start of the experiment, were placed in a well of 12-well uncoated culture plate (BD 35 Falcon, Canaan, CT). For ER stress induction, larvae were exposed in different dosage of ART for different duration at 28.5° C. (Table 3) and washed three times with E3 medium, and hair cells from the hCLRN1-YFP; clrn1^+/+ larvae and hCLRN1^N48K-YFP; clrn1^+/+ larvae were examined for the respective protein distribution pattern in the hair cell bundle and the cell body. Live confocal Z-stack images of otic ‘O’ and middle ‘ML’ neuromasts per larvae of hCLRN1-YFP; clrn1^+/+ larvae and hCLRN1^N48K-YFP; clrn1^+/+ genotypes from the untreated group in the E3 medium, 0.01% DMSO treatment group and ART treatment group were capture using Leica SP2 confocal microscope at 40× oil immersion objective. Hair cells from 2 otic (0) and 2 middle (ML) neuromasts per larvae were examined for the change in YFP intensity in the hair bundle and cell body. From the captured confocal images of these neuromast hair cells, unadjusted 1 micron middle section images of 4 mature hair bundles from ML1 neuromast per larvae were considered for the YFP intensity quantification in unadjusted ROI covering the middle section of each hair bundles using the imageJ software. […] The hair bundle trafficked amount of hCLRN1^N48K protein corresponds to the change in YFP intensity in the hair bundle in the ART treated larvae. Quantification of YFP fluorescence intensity was carried out as described in the previous experiment for unconventional trafficking of hCLRN1^N48K-YFP by hGRASP55 cargos. Student's t-test was used to confirm the observed changes in the YFP intensity in the hair bundles of ART treatment compared to untreated and TG treated hCLRN1^N48K-YFP; clrn1^+/+ larvae, is significant (FIG. 4J).

Data set [2] shares this test system. Described as above. The format is in vivo, zebrafish. The settings on record: TG dosages higher than 1 μM or longer treatment duration. The method, then:
Thapsigargin (TG, 1 mg, Sigma-Aldrich, #T9033) stock in 100% DMSO was diluted in E3 medium to make the required final concentration of the drug. Five different concentrations that were earlier reported to induce ER stress and are non-toxic or lower lethal dose (LD50) in the zebrafish (0.1, 0.5, 1.0, 2.5, 5 μM concentrations) were used in this study. A total of 25 larvae per dosage and treatment duration from the genotypes hCLRN1^N48K-YFP; clrn1^+/+ and hCLRN1-YFP; clrn1^+/+, no older than 72 hours post fertilization (hpf) at the start of the experiment, were placed in a well of 12-well uncoated culture plate (BD Falcon, Canaan, CT). […] Unadjusted 1 micron middle section images of four hair bundles per ML1 neuromast of larvae from TG treated and untreated groups were analyzed using Image J software version v. […] Quantification of YFP fluorescence intensity was carried out as described in the previous experiment for unconventional trafficking of hCLRN1^N48K-YFP by hGRASP55 cargos. […]
Arthemisinin (ART, 100 mg, Sigma-Aldrich, #361593) in 100% DMSO was diluted in E3 medium to make the final concentration. […] Quantification of YFP fluorescence intensity was carried out as described in the previous experiment for unconventional trafficking of hCLRN1^N48K-YFP by hGRASP55 cargos. […]

Regarding `C[C@@H]1CC[C@H]2[C@@H](C)C(=O)O[C@@H]3O[C@@]4(C)CC[C@@H]1[C@]32OO4` [ART, Artemisinin], the Larvae survival result in data set [1] (ART 0.1 μM, exposure 1 h) was “S”; in data set [1] (ART 0.1 μM, exposure 2 h) it was “S”; in data set [1] (ART 0.1 μM, exposure 4 h) it was “S”; in data set [1] (ART 0.1 μM, exposure 6 h) it was “S”; in data set [1] (ART 0.1 μM, exposure 8 h), “S”; in data set [1] (ART 0.1 μM, exposure 10 h), “S”. For the same compound, the Larvae survival entry in data set [1] (ART 0.1 μM, post-exposure recovery time 10 h) was “S”; in data set [1] (ART 0.1 μM, post-exposure recovery time 24 h) it was “S”; in data set [1] (ART 0.1 μM, post-exposure recovery time 48 h), “S”; in data set [1] (ART 0.25 μM, exposure 1 h), “S”; in data set [1] (ART 0.25 μM, exposure 2 h), “S”; in data set [1] (ART 0.25 μM, exposure 4 h), “S”. Also, the Larvae survival entry is on record as “S” in data set [1] (ART 0.25 μM, exposure 6 h); “S” in data set [1] (ART 0.25 μM, exposure 8 h); “S” in data set [1] (ART 0.25 μM, exposure 10 h); “S” in data set [1] (ART 0.25 μM, post-exposure recovery time 10 h); “S” in data set [1] (ART 0.25 μM, post-exposure recovery time 24 h); “S” in data set [1] (ART 0.25 μM, post-exposure recovery time 48 h). The Larvae survival entry in data set [1] (ART 0.4 μM, 4 hours exposure group, post-exposure recovery time 10 h) is on record as “S”; in data set [1] (ART 0.4 μM, 4 hours exposure group, post-exposure recovery time 24 h), “S”; in data set [1] (ART 0.4 μM, 4 hours exposure group, post-exposure recovery time 48 h), “S”; in data set [1] (ART 0.4 μM, exposure 1 h) it was “S”; in data set [1] (ART 0.4 μM, exposure 2 h), “S”; in data set [1] (ART 0.4 μM, exposure 4 h), “S”. Besides, the Larvae survival result in data set [1] (ART 0.4 μM, exposure 6 h) is on record as “S/L”.

On to `C/C=C(/C)C(=O)O[C@H]1C(C)=C2[C@H]([C@@H]1OC(=O)CCCCCCC)[C@@](C)(OC(C)=O)C[C@H](OC(=O)CCC)[C@@]1(O)[C@H]2OC(=O)[C@@]1(C)O` [TG, Thapsigargin], for which the Lethality to larvae result in data set [2] is given as “lethal”.

For the origin of these results see patent publication US11865103B2, “Methods of treating disorders associated with glycosylation defective proteins” (CASE WESTERN RESERVE UNIVERSITY, priority 2016, dated 2024).
